One block for each molecule: values may come before it.
Key:
[1] = target: T1, Signal transducer and activator of transcription 5B (Homo sapiens, UniProt P51692); assay: Binding affinity to MBP-tagged recombinant STAT5b-SH2 domain (unknown origin) using carboxyfluoresceine-labeled phosphotyrosine octapeptide incubated for 12 hrs by fluorescence polarization assay
T1 sequence (P51692 whole entry): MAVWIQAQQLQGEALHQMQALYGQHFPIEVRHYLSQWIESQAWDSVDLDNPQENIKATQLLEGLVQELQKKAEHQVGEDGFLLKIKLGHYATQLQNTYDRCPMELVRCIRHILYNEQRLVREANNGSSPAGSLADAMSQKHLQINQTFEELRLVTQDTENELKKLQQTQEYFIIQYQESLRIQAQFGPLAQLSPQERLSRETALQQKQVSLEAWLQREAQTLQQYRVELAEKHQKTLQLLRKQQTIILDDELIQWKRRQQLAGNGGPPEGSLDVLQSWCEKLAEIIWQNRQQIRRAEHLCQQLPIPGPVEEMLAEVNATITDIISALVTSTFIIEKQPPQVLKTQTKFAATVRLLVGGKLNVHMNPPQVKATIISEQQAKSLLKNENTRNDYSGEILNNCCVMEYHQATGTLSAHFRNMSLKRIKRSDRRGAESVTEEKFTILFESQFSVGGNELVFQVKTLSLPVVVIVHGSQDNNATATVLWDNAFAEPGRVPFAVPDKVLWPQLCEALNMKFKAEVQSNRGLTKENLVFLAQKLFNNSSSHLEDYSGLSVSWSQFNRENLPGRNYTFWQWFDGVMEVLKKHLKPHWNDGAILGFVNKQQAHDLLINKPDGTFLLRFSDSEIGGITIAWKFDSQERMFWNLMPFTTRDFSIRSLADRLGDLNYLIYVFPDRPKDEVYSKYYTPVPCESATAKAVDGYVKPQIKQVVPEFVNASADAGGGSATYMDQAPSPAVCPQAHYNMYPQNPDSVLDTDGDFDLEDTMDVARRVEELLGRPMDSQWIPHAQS

[2] = target: Coagulation factor X (Homo sapiens, UniProt P00742); assay: Inhibition human FA10a using Boc-LeuGly-Arg-AMC fluorogenic substrate
Coagulation factor X, sequence (P00742 41-179 limits assumed): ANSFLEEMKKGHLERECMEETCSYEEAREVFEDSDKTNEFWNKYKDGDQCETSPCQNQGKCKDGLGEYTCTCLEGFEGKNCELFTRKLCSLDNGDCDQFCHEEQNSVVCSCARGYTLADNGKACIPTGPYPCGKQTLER
Coagulation factor X, sequence (P00742 235-488 limits assumed): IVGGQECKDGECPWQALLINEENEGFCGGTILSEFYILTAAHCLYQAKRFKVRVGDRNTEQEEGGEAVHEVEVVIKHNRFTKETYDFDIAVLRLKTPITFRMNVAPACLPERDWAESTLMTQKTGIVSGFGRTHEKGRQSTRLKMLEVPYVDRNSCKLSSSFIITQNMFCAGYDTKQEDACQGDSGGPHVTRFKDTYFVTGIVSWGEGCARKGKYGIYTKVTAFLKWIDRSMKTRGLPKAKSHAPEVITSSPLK

[3] = Antitumor activity against mouse BaF3/FLT3-ITD cells implanted in NSG mouse assessed as induction of tumor growth regression at 200 mg/kg, sc QD for 14 days relative to control; type: functional
[4] = target: T2, Signal transducer and activator of transcription 5B (Mus musculus) (UniProt P42232); assay: Inhibition of STAT5b phosphorylation in mouse BaF3/FLT3-ITD cells at 25 uM after 6 hrs by Western blot analysis relative to control; type: cell-based
T2 sequence (whole entry): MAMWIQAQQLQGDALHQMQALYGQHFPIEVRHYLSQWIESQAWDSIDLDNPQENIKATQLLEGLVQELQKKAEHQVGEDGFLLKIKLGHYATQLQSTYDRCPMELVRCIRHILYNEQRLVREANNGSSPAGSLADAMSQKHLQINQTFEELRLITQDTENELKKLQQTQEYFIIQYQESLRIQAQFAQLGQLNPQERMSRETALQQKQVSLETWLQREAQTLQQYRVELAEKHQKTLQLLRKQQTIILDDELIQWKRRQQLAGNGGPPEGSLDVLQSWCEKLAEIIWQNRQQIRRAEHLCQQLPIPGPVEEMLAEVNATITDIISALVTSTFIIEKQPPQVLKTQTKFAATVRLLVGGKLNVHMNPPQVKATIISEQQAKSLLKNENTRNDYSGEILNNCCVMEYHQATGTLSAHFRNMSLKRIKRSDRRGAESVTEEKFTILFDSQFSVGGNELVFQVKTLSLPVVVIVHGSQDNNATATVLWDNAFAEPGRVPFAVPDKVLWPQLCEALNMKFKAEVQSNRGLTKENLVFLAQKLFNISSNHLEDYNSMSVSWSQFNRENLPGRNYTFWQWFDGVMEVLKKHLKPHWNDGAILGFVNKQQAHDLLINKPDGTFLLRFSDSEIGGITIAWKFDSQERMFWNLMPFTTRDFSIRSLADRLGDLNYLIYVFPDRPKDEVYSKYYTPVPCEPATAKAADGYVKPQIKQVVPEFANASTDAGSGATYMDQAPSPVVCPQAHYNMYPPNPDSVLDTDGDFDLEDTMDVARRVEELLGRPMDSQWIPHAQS

[5] = target: Prothrombin (Homo sapiens, UniProt P00734); assay: Inhibition of thrombin (unknown origin)
[6] = target: T3, Bifunctional ligase/repressor BirA (Staphylococcus aureus, UniProt A0A0E7NXW5); assay: Binding affinity to Staphylococcus aureus biotin protein ligase
T3 sequence (A0A0E7NXW5 whole entry): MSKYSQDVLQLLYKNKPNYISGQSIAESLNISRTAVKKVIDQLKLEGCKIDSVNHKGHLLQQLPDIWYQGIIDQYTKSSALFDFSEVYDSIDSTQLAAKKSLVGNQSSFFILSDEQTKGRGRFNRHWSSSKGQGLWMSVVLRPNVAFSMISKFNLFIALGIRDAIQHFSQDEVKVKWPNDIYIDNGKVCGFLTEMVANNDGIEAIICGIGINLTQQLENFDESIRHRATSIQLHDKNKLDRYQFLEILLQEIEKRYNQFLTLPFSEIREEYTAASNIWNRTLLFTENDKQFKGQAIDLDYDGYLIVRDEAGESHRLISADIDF

[7] = Inhibition of Enterovirus A71 3c protease
[8] = Biodistribution in RBC of SCID mouse measured after 10 mins; type: ADME, organism-based; settings: erythrocyte
[9] = Biodistribution in plasma of SCID mouse measured after 10 mins; type: ADME, organism-based; settings: in vivo
[10] = target: Carbonic anhydrase 2 (Bos taurus, UniProt P00921); assay: Binding affinity to bovine carbonic anhydrase 2
Carbonic anhydrase 2, sequence (P00921 whole entry): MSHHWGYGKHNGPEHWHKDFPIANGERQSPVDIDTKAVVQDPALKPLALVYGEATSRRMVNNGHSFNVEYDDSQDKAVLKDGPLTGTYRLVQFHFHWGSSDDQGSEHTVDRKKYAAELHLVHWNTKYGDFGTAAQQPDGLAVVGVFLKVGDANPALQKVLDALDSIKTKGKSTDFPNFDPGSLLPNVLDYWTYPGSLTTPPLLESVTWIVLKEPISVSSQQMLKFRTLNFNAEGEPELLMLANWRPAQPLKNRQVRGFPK

[11] = organism: Rattus norvegicus; assay: animal or person; settings: 3 h
Description: Antiinflammatory activity in rat model of carrageenan-induced paw edema model after 3 hrs

- Ki [1]: > 5000 µM
Compound: O=C(O)c1nonc1NCn1ccnn1

- IC50 [1]: 2.9 µM
- inhibition [4]: > 50%
Compound: O=C(O)c1nonc1NCn1nnnc1Cc1ccccc1
- Activity [3]: 28%

- Ki [1]: 0.6 µM
Compound: O=C(O)c1nonc1NCn1nnnc1-c1ccc(F)cc1

- Ki [1]: > 5000 µM
Compound: O=C(O)c1nonc1NCn1nnnc1-c1ccccc1

- Ki [1]: > 5000 µM
Compound: O=C(O)c1nonc1NCn1nnnc1-c1cccc(F)c1

- Ki [1]: > 5000 µM
Compound: O=C(O)c1nonc1NCn1nnc2ccccc21

Second part, the molecule before the results:

Compound: N=C(N)c1ccc(CN)cc1
- Ki [2]: 680 µM

Compound: N=C(N)c1ccc(NC(C(=O)NCc2ccccc2)c2ccccc2)cc1 (centres undefined)
- Ki [5]: 0.05 µM

Compound: O=C1N[C@H]2[C@H](CS[C@H]2CCCCc2cn(CCCNc3ccc([N+](=O)[O-])c4nonc34)nn2)N1
- Ki [6]: 1.4 µM

Compound: COC(=O)c1nonc1NCn1nnnc1-c1cccc(OC(F)(F)F)c1
- Ki [1]: > 5000 µM

Compound: CCOC(=O)/C=C/[C@H](C[C@@H]1CCCNC1=O)NC(=O)[C@H](Cc1ccccc1)NC(=O)C=O
- IC50 [7]: 16.4 µM

Compound: O=C(O)c1nonc1NCn1cncn1
- Ki [1]: > 5000 µM

Compound: CC(C)[C@H](C(=O)NCc1cc([18F])ccn1)n1cc(-c2ccc(S(N)(=O)=O)cc2)nn1
- Drug uptake [8]: 90%
- Drug uptake [9]: 10%
- Kd [10]: 0.0005 µM

Compound: Cc1cc(-n2cc(-c3ccc(F)cc3)nn2)n(-c2ccc(S(C)(=O)=O)cc2)n1
- ED50 [11]: 0.44 mg/kg

Compound: Nc1nonc1C(=O)O
- Ki [1]: 420 µM

— ChEMBL document CHEMBL4354833, “Kinetic Target-Guided Synthesis: Reaching the Age of Maturity” (J Med Chem, 2020)
